# Laboratory results from patent US20100166662A1, “MAGNETIC RESONANCE IMAGING METHOD USING VANADYL-BASED CONTRAST AGENTS” (The University of Chicago, priority 2006, published 2010).
# How the values were obtained:
# 3T3-L1 adipocytes = assay: Uptake of 2-deoxy-D-[1-14C]glucose by 3T3-L1 adipocytes; assay type: cell-based
# Protocol: The effect of vanadyl compounds on uptake of 2-deoxy-D-[1-^14C]glucose by 3T3-L1 adipocytes was measured using methods described in Makinen, M. W., et al., “Structural Origins of the Insulin-Mimetic Activity of Bis(acetylacetonato)oxovanadium(IV),” J. Biol. Chem. 277 (2002) pp. 12215-12220, which is incorporated herein by reference. Serum-starved, differentiated […] adipocytes were used in the metabolic assays. Cells were washed twice with phosphate-buffered isotonic saline at 37° C. and serum-starved for 2.5 hours in Krebs-Ringer buffer lacking bovine serum albumin or serum. The medium was removed, and cells were incubated for 30 minutes in buffer with different concentrations of VO^2+-based contrast agents with or without serum albumin (1 mM) prior to measuring glucose uptake rates. Glucose transport rates were measured by the addition of 20 μM 2-deoxy-D-[1-^14C] glucose.
# p-AKT = assay: Cell signaling study, Western blot of p-AKT in Caco-2 and HCA-7 cells; assay type: cell-based, human; settings: 5 min; for level of p-AKT compared to controls: Caco-2 and HCA-7 cells
# Protocol: (§1) HCA-7 and Caco-2 cells derived from human colonic adenocarcinomas obtained from the American Type Culture Collection, Manassas, Va. were cultured at 37° C. in a humidified atmosphere of 5% CO2-95% air in 6-well plates (250,000 cells/well/2 mL in 5% serum medium). When cells were ˜70-80% confluent, cells were transferred to serum-free media and kept overnight. A vanadyl compound was added to a well to a final concentration of 100, 250, or 500 μM and incubated for 5 minutes. In each 6-well plate, 2 wells were set as controls and 4 wells were set for one desired concentration of a vanadyl compounds. Cells were then homogenized in 2× Laemmli sodium dodecyl sulfate (SDS) buffer. Samples were boiled for 5 minutes at 100° C. and proteins quantified using the RC-DC protein assay (Bio-Rad). Western blotting was then carried out, briefly described as follows. SDS-treated samples (50 μg/lane) were separated by SDS-polyacrylamide gel electrophoresis (PAGE) on a 4-15% resolving gel. Pre-stained molecular weight markers were included in each gel. Gels were electroblotted to immobilon-P transfer membranes (Millipore Billerica, Mass.). Following blocking of non-specific antibody binding, the blots were exposed to rabbit polyclonal anti-pAKT (Cell Signaling Technology, Danvers, Mass.) or mouse monoclonal anti-pERK (Santa Cruz Biotechnology, Inc., Santa Cruz, Calif.) and developed with secondary antibody using standard methods. The blots were washed, and the p-AKT and p-ERK were detected in film and digitized for final quantification.
# FIG. 3 illustrates two Western blots of p-AKT using Caco-2 (left panel) and HCA-7 cells (right panel) treated with VO(acac)2 in a concentration of 100, 250 or 500 μM (top, middle and bottom rows, respectively). Lane 1 is the control; lanes 2 and 3 are duplicates of cells exposed to VO(acac)2 a particular concentration of VO(acac)2. These blots were analyzed by […] on X-OMAT™ autoradiogram films using an enhanced chemiluminesence system.
# p-ERK = assay: Cell signaling study, Western blot of p-ERK in Caco-2 and HCA-7 cells; assay type: cell-based, human; settings: 100, 250 or 500 μM, 5 min
# Protocol: as §1, with “Following blocking of non-specific antibody binding, the blots were exposed to rabbit polyclonal anti-pAKT (Cell Signaling Technology, Danvers, Mass.) or mouse monoclonal anti-pERK (Santa Cruz Biotechnology, Inc., Santa Cruz, Calif.) and developed with secondary antibody using standard methods.” left out
# [1] = T1 relaxivity of the contrast agent in buffer; assay type: physicochemical; settings: 0.01 M HEPES buffer pH 7.4 with 0.15 M NaCl; 4.7 Tesla
# Protocol: The T1 relaxation times of VO(acac)2 in 0.01 M HEPES buffer at pH 7.4 with 0.15 M NaCl were determined. With the determined T1 values at different concentrations of VO(acac)2, the relaxivity was determined using equation 1,
# where T1m is the measured T1 for VO(acac)2, T1w is the T1 for water, C is the concentration of the contrast agent, and r1 is the relaxivity. The relaxivity for VO(acac)2 of 2.5±0.2 mM^−1s^−1 is slightly lower but close to that of known contrast agents of gadolinium complexes of 4.3±0.2 mM^−1s^−1 at 4.7 Tesla. This means that VO(acac)2 can produce significant, easily detectable changes in MR image intensity.
# [2] = Toxicity study in tumor-bearing nude mice (blood parameters, i-STAT); assay type: in vivo; settings: 1 mmol/kg via tail vein, monitored over three days, mice bearing AT6.1 tumor
# Protocol: Toxicity studies were performed with tumor-bearing nude mice weighing about 25-30 grams (n=5). An AT6.1 prostate tumor was implanted subcutaneously in the hind limb of the mouse. 1 mmol/kg of VO(acac)2 was administered through a catheter placed in the tail vein. The VO(acac)2 was dissolved in dimethyl sulfoxide and the resulting solution was diluted with saline. The final concentration of DMSO was about 5% by volume. The solution was about 10 mM VO(acac)2.
# The pH, pCO2, HCO3^−, TCO2, serum O2, Na^+, K^+, Ca^2+, glucose, blood urea nitrogen (BUN), Hematocrit (Hct) and hemoglobin (Hb) were monitored using an i-STAT analyzer (East Windsor, N.J.) by taking ˜30 μL blood samples over a period of three days.
# AT6.1 prostate tumor = assay: In vivo MRI and contrast media dynamics in rats bearing AT6.1 tumors; design: species or system Copenhagen rat; settings: rat
# Protocol: MRI studies were performed using a 4.7 Tesla Bruker scanner with multi-slice echo-planner spectroscopic imaging (EPSI). The scanning parameters were as follows: TR/TE of 800/80 msec; field of view 40 mm; array size of 256×256; slice thickness of 0.5 mm; and, an average of 1.
# First, high-resolution reference images were acquired by conventional spin echo and gradient echo pulse sequences using multiple slices. These reference images provided anatomic reference information and were used to accurately measure tumor volume. Then multi-slice (usually 3 slices) echo-planner spectroscopic imaging (EPSI) with repetition time (TR) of 800 msec and echo time (TE) of 80 msec were acquired. Acquisition of MRI data using high-resolution EPSI pulse sequence may also be used. These sequence images were acquired with spatial resolution of 200 micron in-plane in ˜500 micron slices and spectral resolution of 2 Hz. These images were acquired at the same spatial resolution as conventional images but provided increased sensitivity to contrast media effects.
# A Dunning AT6.1 prostate tumor was implanted subcutaneously in the hind limb of a Copenhagen rat. The tumor was monitored and imaging began when the tumor reached a size of 5-10 mm. The VO^2+-based contrast agent was dissolved in dimethyl sulfoxide and the resulting solution was diluted with saline. The final concentration of DMSO was about 5% by volume. The solution was about 10 mM VO^2+-based contrast agent.
# After 6 to 8 pre-contrast MR images were obtained as a reference, 0.15 mmol/kg of VO(acac)2 was injected through a catheter placed in the tail vein of the rat over 5 minutes. During MR imaging, the rats were anesthetized using isofluorane mixed with air and oxygen flowing through a mask. Exhaust gases were eliminated through an F-Air canister attached to the mask set up. Temperature was monitored continuously by a rectal thermometer and controlled with a warm water blanket. Heart rate, respiration rate, and blood pressure were monitored using an optical detector system from SA Instruments (Stony Brook, N.Y.). To minimize motion artifacts, rats were wrapped in co-flex and taped to a Plexiglass board. The leg was secured through the coil in a plastic tube and taped to the cradle.
# Post-contrast EPSI scans were acquired for about 4 hours. Each EPSI scan took about 3.5 minutes. Images were used in which the intensity was proportional to the peak height of the water resonance in each voxel. […]
# 0.15 mmol/kg of VO(acac)2 was injected through a catheter placed in the tail vein of the rat over 5 minutes. […] Temperature was monitored continuously by a rectal thermometer and controlled with a warm water blanket. Heart rate, respiration rate, and blood pressure were monitored using an optical detector system from SA Instruments (Stony Brook, N.Y.). […]
# AT6.1 prostate tumors = assay: Vanadyl concentration in tumor and muscle tissue by atomic absorption spectroscopy; assay type: in vivo, nude mice; settings: at 5 hours after about 0.15 mmol/kg i.v., mice
# Protocol: AT6.1 prostate tumors were implanted subcutaneously in the hind limbs of nude mice. The tumors were monitored and allowed to grow to about 6-8 mm over a period of about 2 weeks. The VO^2+-based contrast agent was dissolved in dimethyl sulfoxide and the resulting solution was diluted with saline. The final concentration of DMSO was about 5% by volume. The solution was about 10 mM VO^2+-based contrast agent. VO(acac)2 was added slowly to the tail vein of each mouse using a syringe infusion pump (Harvard Apparatus, South Natick, Mass.). A total of 100 μL of solution were added in 5 minutes (flow rate=20 μL/minute) for a total dosage of about 0.15 mmol/kg. All mice were kept in a cage and monitored after injection. The mice were then sacrificed at various times. Tissue samples of the tumors and muscles were removed after a mouse was sacrificed. The tissue samples were weighed and then digested by wet digestion using H2O2 and HNO3. Atomic absorption measurements were carried out using Perkin Elmer AAnalyst 300 with an HGA 800 furnace. Control sets (n=3) were free of contrast agent. Measurements were based on standard curves of known vanadyl concentration with a correlation coefficient of 0.99820.
# [3] = Solubility in aqueous solutions at physiological pH; assay type: physicochemical
# Protocol: Bis(acetylamido)oxovanadium(IV) [VO(acac-NH2)2]. VO(acac-NH2)2 was synthesized according to the procedure described by Crans et al., “Bis(acetylamido)oxovanadium(IV) Complexes: Solid State and Solution Studies,” J. Chem. Soc. Dalton Trans. (2001) pp. 3337-3345. One equivalent of vanadyl sulfate was dissolved in water followed by the addition of 3-equivalents of acetoacetamide under constant stirring. A solution of 10% sodium bicarbonate was then added dropwise to raise the pH from 1.5 to 3.6 in order to form a suspension. A bluish precipitate was obtained after allowing the solution to stand for one day at 4° C. The precipitate was filtered off, washed with a small amount of chloroform, and dried under vacuum.
# Bis(acetylacetanato-bisNH2)oxovanadium(IV) [VO(acac-(NH2)2)2]. VO(acac-(NH2)2)2 is synthesized as follows. One equivalent of vanadyl sulfate is dissolved in water followed by the addition of 3 equivalents of malonamide under constant stirring. A solution of 10% sodium bicarbonate is then added dropwise to raise the pH in order to form a suspension. A bluish precipitate is obtained after standing the solution for one day at 4° C. The precipitate is filtered off, washed with a small amount of chloroform, and dried under vacuum.
# [4] = 0.15 mmol/kg i.v. over 5 minutes, AT6.1 tumor
compound,measurement,setting,value
"Cc1occc(=O)c1[O-].Cc1occc(=O)c1[O-].[O]=[V+2] [VO(malto)2, Bis(maltolato)oxovanadium(IV)]",dependence of increase in glucose uptake on compound:serum albumin ratio,3T3-L1 adipocytes; data not shown,no clear dependence
same,enhancement of glucose uptake per equivalent of VO2+ compared with VO(acac)2 and VO(OPT)2,3T3-L1 adipocytes; data not shown,markedly less
same,glucose uptake (effect in words),"3T3-L1 adipocytes; with or without 1 mM serum albumin, data not shown",facilitate glucose uptake
"O=S(=O)([O-])[O-].[O]=[V+2] [VOSO4, vanadyl sulfate, reference compound]",activation of p-AKT (in words),"p-AKT; 100, 250 or 500 μM",did not induce measurable activation
same,activation of p-ERK (in words),p-ERK,did not induce measurable activation
Bis(acetylacetonato)oxovanadium(IV) [VO(acac)2],relaxivity r1,[1],2.5 ± 0.2 mM⁻¹ s⁻¹
same,uptake of glucose,"3T3-L1 adipocytes; in the presence of equimolar concentrations of serum albumin, 30 min incubation",maximally enhanced
same,level of p-AKT compared to controls,p-AKT; 100 μM,2 fold
same,level of p-AKT compared to controls,p-AKT; 250 μM,5 fold
same,level of p-AKT compared to controls,p-AKT; 500 μM,12 fold
same,"blood pH, pCO2, HCO3−, TCO2, serum O2, Na+, K+, Ca2+, glucose, BUN, Hct, Hb",[2],fell within the normal range
same,"MR signal enhancement in tumor regions, often as high as",AT6.1 prostate tumor; [4],≤ 100%
same,"MR signal enhancement in tumor regions, typical",AT6.1 prostate tumor; [4],greater than 50%
same,enhancement in muscle for a long time after injection,AT6.1 prostate tumor; 0.15 mmol/kg i.v.,relatively little enhancement in muscle
same,T1 and T2* contrast,"AT6.1 prostate tumor; 0.15 mmol/kg i.v., 4.7 Tesla",excellent T1 and T2* contrast
same,vanadyl concentration in tumor tissue,AT6.1 prostate tumors,remained relatively high
Bis(acetylamido)oxovanadium(IV) [VO(acac-NH2)2],solubility in aqueous solutions,[3],completely soluble
